Source: patent US8507686B2, “Substituted bicyclic methyl azetidines as sphingosine-1 phosphate receptors modulators” (Allergan, Inc., priority 2011, dated 2013)

Target: T1, human S1P1 receptor (Homo sapiens, UniProt P21453)
T1 construct: expressed in transfected cells; host or cells: cells stably expressing the S1P1 receptor; membranes used
Assay: GTP γ35S binding assay for S1P1 activity
Format: biochemical
Details: membranes of cells stably expressing the S1P1 receptor; agonist-induced GTP γ35S binding; read-out: EC50 at the S1P1 receptor from GTP γ35S
Procedure: Novel compounds were synthesized and tested for S1P1 activity using the GTP γ^35S binding assay. These compounds may be assessed for their ability to activate or block activation of the human S1P1 receptor in cells stably expressing the S1P1 receptor. […] binding was measured in the medium containing (mM) HEPES 25, pH 7.4, MgCl2 10, NaCl 100, dithitothreitol 0.5, digitonin 0.003%, 0.2 nM GTP γ^35S, and 5 μg membrane protein in a volume of 150 μl. Test compounds were included in the concentration range from 0.08 to 5,000 nM unless indicated otherwise. Membranes were incubated with 100 μM 5′-adenylylimmidodiphosphate for 30 min, and subsequently with 10 μM GDP for 10 min on ice. Drug solutions and membrane were mixed, and then reactions were initiated by adding GTP γ^35 S and continued for 30 min at 25° C. Reaction mixtures were filtered over Whatman GF/B filters under vacuum, and washed three times with 3 mL of ice-cold buffer (HEPES 25, pH7.4, MgCl2 10 and NaCl 100). Filters were dried and mixed with scintillant, and counted for ^35S activity using a β-counter. Agonist-induced GTP γ^35 S binding was obtained by subtracting that in the absence of agonist. Binding data were analyzed using a non-linear regression method. In case of antagonist assay, the reaction mixture contained 10 nM […] in the presence of test antagonist at concentrations ranging from 0.08 to 5000 nM.

T1 sequence (P21453 whole entry): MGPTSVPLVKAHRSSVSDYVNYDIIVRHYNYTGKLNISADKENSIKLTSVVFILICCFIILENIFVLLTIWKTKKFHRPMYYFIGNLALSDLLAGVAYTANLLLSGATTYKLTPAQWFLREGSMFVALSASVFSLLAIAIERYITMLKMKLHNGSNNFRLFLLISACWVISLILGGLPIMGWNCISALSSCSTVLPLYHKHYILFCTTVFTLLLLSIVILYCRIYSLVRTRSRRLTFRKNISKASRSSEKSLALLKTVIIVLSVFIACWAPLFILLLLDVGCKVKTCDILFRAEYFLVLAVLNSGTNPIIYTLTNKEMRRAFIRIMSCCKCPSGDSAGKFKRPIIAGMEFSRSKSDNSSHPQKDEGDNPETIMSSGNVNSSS

- EC50: 390 nM
SMILES: O=C(O)C1CN(Cc2ccc(C#CCCCCc3ccccc3)c3cccnc23)C1 [Compound 1]
